# From patent US7413747B2, “Transdermal therapeutic system for treating Parkinsonism” (LTS Lohmann Therapie-Systeme AG, priority 1998, dated 2008)
# How the values were obtained:
# [1] = Permeation studies utilizing Franz diffusion cells and human epidermis; format: in vitro ADME; conditions: skin, due to hydrophilic properties
# Source text: The finished plasters were used in permeation studies utilizing Franz diffusion cells and human epidermis. It will be seen that all plasters are capable of systemically providing a sufficient amount of active substance through the skin. […] It will also be seen that the silicone adhesive-based plasters, although having a considerably lower active substance content, deliver approximately the same quantity of active substance via the skin as the systems based on polyacrylate adhesives.
# [2] = Solubility of the active substance in polyacrylate adhesives; format: physicochemical; conditions: polyacrylate adhesive matrix; ambient temperature
# Source text: (§1) The transdermal therapeutic system according to this invention, of the kind mentioned at the beginning and developed in accordance with the above, is essentially characterized by a matrix on the basis of an acrylate-based or silicone-based non-aqueous polymer adhesive system having a solubility for the free D2-agonist base (−)-5,6,7,8-tetrahydro-6-[propyl-[2-(2-thienyl)ethyl]amino]-1-naphthalenol of >5% (w/w), which matrix is substantially free of inorganic silicate particulates. The solubility is determined at ambient temperature.
# In systems wherein the active substance is only partially dissolved the concentration of the dissolved active substance is equal to the saturation concentration and thus has the maximum thermodynamic activity under these conditions. In general, it is, above all, the kind and quantity of the free functional groups in the adhesive which are important for the dissolving capacity of the polyacrylate adhesives. […] Such a system must therefore contain the active substance in a concentration of at least 10% (w/w) in order to come sufficiently near to the maximal thermodynamic activity. For the hydrochloride of (−)-5,6,7,8-tetrahydro-6-[propyl-[2-(2-thienyl)ethyl]amino]-1-naphthalenol the solubility in polyacrylates having 5-10% (w/w) is much lower, so that in such systems the active substance is preferably only partially dissolved.
# [3] = Solubility (saturation capacity) of the active substance in silicone adhesives; format: physicochemical; conditions: for saturation capacity in silicone adhesives: silicone adhesive without solubility-increasing additive
# Source text: as §1
# This is sufficient to dissolve 10 mg active substance in a 20 cm^2 large patch having a coat weight of the matrix of 50 g/m^2. Since with transdermal patch systems one must always assume that only about 50% of the active substance employed will be available during the period of application, given a daily dose in the range of 1-10 mg of the active substance a plaster size of between 2 and 40 cm^2 can be expected to be sufficient to achieve therapeutic plasma levels.
passing the barrier of the stratum corneum [1],solubility in polyacrylate adhesives [2],saturation capacity in silicone adhesives [3],solubility in amine-resistant silicone adhesive ([3]; about 1.5-5% (w/w) of polyvinylpyrrolidone in the adhesive),dissolving capacity for the free base in silicone adhesive matrices ([3]; silicone adhesive admixed with a substance having increased solubility for the active substance (e.g. polyvinylpyrrolidone)),SMILES
only poorly,5-10 % (w/w),practically insoluble,,,"CCCN(CCc1cccs1)C1CCc2c(O)cccc2C1.Cl (single isomer, unassigned; (-)) [(−)-5,6,7,8-tetrahydro-6-[propyl-[2-(2-thienyl)ethyl]amino]-1-naphthalenol hydrochloride]"
,15-35 % (w/w),about 5 % (w/w),10-15 % (w/w),up to 40 % (w/w),"CCCN(CCc1cccs1)C1CCc2c(O)cccc2C1 (single isomer, unassigned; (-)) [(−)-5,6,7,8-tetrahydro-6-[propyl-[2-(2-thienyl)ethyl]amino]-1-naphthalenol]"
